Laboratory results from article PMC6825221, “In silico re-engineering of a neurotransmitter to activate KCNQ potassium channels in an isoform-specific manner” (Communications Biology, 2019).

Molecular target: KCNQ1 (Homo sapiens, UniProt P51787)
Assay: TEVC of homomeric KCNQ1 expressed in Xenopus oocytes
Format: cell-based
Settings: dose response, ΔV0.5act
From the text: We generated cRNA transcripts encoding human KCNQ1, KCNQ2, KCNQ3, KCNQ4, KCNQ5 or GLRA1 (NM_001146040) (GenScript, Piscataway, NJ, USA) by in vitro transcription using the T7 polymerase mMessage mMachine kit (Thermo Fisher Scientific), after vector linearization, from cDNA sub-cloned into plasmids incorporating Xenopus laevis β-globin 5′ and 3′ UTRs flanking the coding region to enhance translation and cRNA stability. We quantified cRNA by spectrophotometry. We generated mutant KCNQ2 and KCNQ3 cDNAs by site-directed mutagenesis using a QuikChange kit (Stratagene, San Diego, CA) and prepared the corresponding cRNAs as above. We injected defolliculated stage V and VI Xenopus laevis oocytes (Ecocyte Bioscience, Austin, TX and Xenoocyte, Dexter, MI) with KCNQ channel α subunit (5-20 ng) or GLRA1 (20 ng) cRNAs. We incubated the oocytes at 16 °C in Barth’s saline solution (Ecocyte Bioscience) containing penicillin and streptomycin, with daily washing, for 2–5 days prior to two-electrode voltage-clamp (TEVC) recording.
We performed TEVC at room temperature using an OC-725C amplifier (Warner Instruments, Hamden, CT) and pClamp10 software (Molecular Devices, Sunnyvale, CA) 2–5 days after cRNA injection as described in the section above. For recording, oocytes were placed in a small-volume oocyte bath (Warner) and viewed them with a dissection microscope. Chemicals were sourced from Sigma, Matrix Scientific and Santa Cruz. […] All stock solutions were diluted in bath solution on the day of experiments. KCNQ2/3 channel activation was screened for using either 30 µM or 100 µM concentrations of each of the six compounds, then dose responses were conducted as appropriate. […] Currents were recorded in response to voltage pulses between −120 or −80 mV and + 40 mV at 20 mV intervals from a holding potential of −80 mV, to yield current-voltage relationships, current magnitude, and for quantifying activation rate. We analyzed data using Clampfit (Molecular Devices) and Graphpad Prism software (GraphPad, San Diego, CA, USA); values are stated as mean ± SEM. […]

effects on KCNQ1: negligible or much less potent effects
SMILES: CS(=O)(=O)N(CC(=O)O)c1cccc(F)c1 [3FMSG]
